How the values were obtained:
[1] = biological target: T1, UGT1A7 (Homo sapiens, UniProt Q9HAW7); test: UGT1A7 supersomes-catalyzed 4-MU glucuronidation inhibition; details: recombinant human UGT, mean of triplicate
T1 sequence (Q9HAW7 26-530): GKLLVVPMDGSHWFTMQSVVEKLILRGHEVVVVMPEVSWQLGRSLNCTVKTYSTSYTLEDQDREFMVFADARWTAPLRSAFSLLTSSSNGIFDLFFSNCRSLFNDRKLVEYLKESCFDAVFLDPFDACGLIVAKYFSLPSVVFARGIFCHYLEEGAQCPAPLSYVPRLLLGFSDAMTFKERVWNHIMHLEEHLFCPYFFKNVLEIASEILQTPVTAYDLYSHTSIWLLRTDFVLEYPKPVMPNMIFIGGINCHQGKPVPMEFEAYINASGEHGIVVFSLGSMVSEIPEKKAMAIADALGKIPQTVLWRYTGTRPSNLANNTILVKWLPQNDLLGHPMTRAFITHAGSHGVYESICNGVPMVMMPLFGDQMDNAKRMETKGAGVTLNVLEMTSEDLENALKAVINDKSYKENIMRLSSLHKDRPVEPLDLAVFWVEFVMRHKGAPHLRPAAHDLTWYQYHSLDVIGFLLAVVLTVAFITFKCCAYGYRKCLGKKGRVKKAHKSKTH

[2] = biological target: T2, UGT1A1 (Homo sapiens, UniProt P22309); test: UGT1A1 supersomes-catalyzed 4-MU glucuronidation inhibition; details: recombinant human UGT, mean of triplicate
T2 sequence (P22309 26-533): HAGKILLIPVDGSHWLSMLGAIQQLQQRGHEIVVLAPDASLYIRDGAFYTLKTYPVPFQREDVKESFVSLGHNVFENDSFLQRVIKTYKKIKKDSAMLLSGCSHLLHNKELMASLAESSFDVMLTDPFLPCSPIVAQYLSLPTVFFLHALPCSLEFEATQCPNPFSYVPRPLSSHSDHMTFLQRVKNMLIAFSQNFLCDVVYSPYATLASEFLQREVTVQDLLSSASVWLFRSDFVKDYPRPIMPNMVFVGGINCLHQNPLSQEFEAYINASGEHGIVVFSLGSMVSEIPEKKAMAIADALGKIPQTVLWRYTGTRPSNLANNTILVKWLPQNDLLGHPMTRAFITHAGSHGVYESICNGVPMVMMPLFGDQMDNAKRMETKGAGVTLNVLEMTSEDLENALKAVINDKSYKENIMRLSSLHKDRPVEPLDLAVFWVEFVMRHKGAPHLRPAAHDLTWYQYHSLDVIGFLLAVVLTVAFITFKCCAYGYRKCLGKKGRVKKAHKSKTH

[3] = biological target: T3, UGT1A9 (Homo sapiens, UniProt O60656); test: UGT1A9 supersomes-catalyzed 4-MU glucuronidation inhibition; details: for residual activity 1A9: recombinant human UGT, mean of triplicate
T3 sequence (O60656 26-530): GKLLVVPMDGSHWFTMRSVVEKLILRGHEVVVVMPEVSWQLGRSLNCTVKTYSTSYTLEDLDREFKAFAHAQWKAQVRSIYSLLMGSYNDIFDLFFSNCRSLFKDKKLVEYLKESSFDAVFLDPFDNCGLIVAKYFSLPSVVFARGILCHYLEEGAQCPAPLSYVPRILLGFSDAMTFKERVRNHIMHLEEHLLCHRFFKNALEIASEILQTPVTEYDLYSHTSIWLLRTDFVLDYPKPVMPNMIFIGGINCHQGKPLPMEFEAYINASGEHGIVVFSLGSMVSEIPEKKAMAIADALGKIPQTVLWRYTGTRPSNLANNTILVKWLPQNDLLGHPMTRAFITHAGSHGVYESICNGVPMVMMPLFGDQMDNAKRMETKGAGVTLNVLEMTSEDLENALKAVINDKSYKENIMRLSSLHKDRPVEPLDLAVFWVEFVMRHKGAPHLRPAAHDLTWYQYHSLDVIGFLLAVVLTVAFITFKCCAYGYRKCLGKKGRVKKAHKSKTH

[4] = tested on: UGT isoforms; test: Initial screening towards all UGT isoforms; type: biochemical, human; details: about 50 μM; isoforms not given

residual activity 1A7 ([1]; 50 μM PC components) [%] | residual activity 1A1 ([2]; 50 μM PC components) [%] | residual activity 1A9 ([3]; 50 μM PC components) [%] | inhibition percentage of UGT1A9 activity ([3]; 50 μM) [%] | SMILES | residual activity 1A7 ([1]; 50 μM LPC components) [%] | residual activity 1A1 ([2]; 50 μM LPC components) [%] | residual activity 1A9 ([3]; 50 μM LPC components) [%] | inhibition of activity of UGT isoforms [4]
155.2 | 192.6 | 67.5 | – | CCCCCCCCCCCCCCCC(=O)OC[C@H](COP(=O)([O-])OCC[N+](C)(C)C)OC(=O)CCCCCCCCCCCCCCC [PC 16:0, 16:0] | – | – | – | –
139.9 | 208.2 | 67.7 | – | CCCCCCCCCCCCCCCCCC(=O)OC[C@H](COP(=O)([O-])OCC[N+](C)(C)C)OC(=O)CCCCCCCCCCCCCCCCC [PC 18:0, 18:0] | – | – | – | –
160.6 | 201.1 | 99.2 | – | CCCCCCCCCCCCC(=O)OC[C@H](COP(=O)([O-])OCC[N+](C)(C)C)OC(=O)CCCCCCCCCCCC [PC 13:0, 13:0] | – | – | – | –
– | – | – | – | CCCCCCCCCCCCC(=O)OC[C@@H](O)COP(=O)([O-])OCC[N+](C)(C)C [LPC 13:0] | 120.1 | 160.6 | 99.4 | –
– | – | – | – | CCCCCCC(=O)OCC(O)COP(=O)([O-])OCC[N+](C)(C)C (stereo not shown) [LPC 7:0] | 138.3 | 174.9 | 92.9 | –
– | – | – | – | CCCCCCCCCCCCCCCCC(=O)OC[C@@H](O)COP(=O)([O-])OCC[N+](C)(C)C [LPC 17:0] | 164.3 | 167.6 | 87.5 | more than 90%
– | – | – | – | CCCCCCCC(=O)OCC(O)COP(=O)([O-])OCC[N+](C)(C)C (stereo not shown) [LPC 8:0] | 133.3 | 184.9 | 99.6 | –
118.8 | 133.7 | 77.3 | – | CCCCCCCCCCCCCCCCCCCCCCC(=O)OC[C@H](COP(=O)([O-])OCC[N+](C)(C)C)OC(=O)CCCCCCCCCCCCCCCCCCCCCC [PC 23:0, 23:0] | – | – | – | –
171.4 | 208.8 | 84.1 | – | CCCCCCCCCCCC(=O)OC[C@H](COP(=O)([O-])OCC[N+](C)(C)C)OC(=O)CCCCCCCCCCC [PC 12:0, 12:0] | – | – | – | –
– | – | – | – | CCCCCCCCCCCCCCC(=O)OC[C@@H](O)COP(=O)([O-])OCC[N+](C)(C)C [LPC 15:0] | 156.2 | 162.9 | 82.8 | more than 90%
– | – | – | – | CCCCCC(=O)OC[C@@H](O)COP(=O)([O-])OCC[N+](C)(C)C [LPC 6:0] | 130.6 | 176.7 | 95.9 | –
– | – | – | – | CCCCCCCCCC(=O)OC[C@@H](O)COP(=O)([O-])OCC[N+](C)(C)C [LPC 10:0] | 139.8 | 170.2 | 99.2 | –
– | – | – | – | CCCCCCCCCCC(=O)OC[C@@H](O)COP(=O)([O-])OCC[N+](C)(C)C [LPC 11:0] | 149.9 | 167.3 | 104.6 | –
138.9 | 192.3 | 65.7 | – | CCCCCCCCCCCCCCCCC(=O)OC[C@H](COP(=O)([O-])OCC[N+](C)(C)C)OC(=O)CCCCCCCCCCCCCCCC [PC 17:0, 17:0] | – | – | – | –
– | – | – | – | CCCCCCCCCCCC(=O)OC[C@@H](O)COP(=O)([O-])OCC[N+](C)(C)C [LPC 12:0] | 138.6 | 165.9 | 89.2 | –
175.5 | 232.3 | 97.8 | – | CCCCCCCCCCC(=O)OC[C@H](COP(=O)([O-])OCC[N+](C)(C)C)OC(=O)CCCCCCCCCC [PC 11:0, 11:0] | – | – | – | –
125.5 | 202.3 | 65.6 | – | CCCCCCCCCCCCCCCCCCCC(=O)OC[C@H](COP(=O)([O-])OCC[N+](C)(C)C)OC(=O)CCCCCCCCCCCCCCCCCCC [PC 20:0, 20:0] | – | – | – | –
162.3 | 208.9 | 86.3 | – | CCCCCCCCCCCCCC(=O)OC[C@H](COP(=O)([O-])OCC[N+](C)(C)C)OC(=O)CCCCCCCCCCCCC [PC 14:0, 14:0] | – | – | – | –
135.5 | 184.9 | 42.3 | – | CCCCCCCCCCCCCCCCCCC(=O)OC[C@H](COP(=O)([O-])OCC[N+](C)(C)C)OC(=O)CCCCCCCCCCCCCCCCCC [PC 19:0, 19:0] | – | – | – | –
122.0 | 185.2 | 38.1 | – | CCCCCCCCCCCCCCCCCCCCC(=O)OC[C@H](COP(=O)([O-])OCC[N+](C)(C)C)OC(=O)CCCCCCCCCCCCCCCCCCCC [PC 21:0, 21:0] | – | – | – | –
86.2 | 170.3 | 43.9 | – | CCCCCCCCCCCCCCCCCCCCCC(=O)OC[C@H](COP(=O)([O-])OCC[N+](C)(C)C)OC(=O)CCCCCCCCCCCCCCCCCCCCC [PC 22:0, 22:0] | – | – | – | –
– | – | – | – | CCCCCCCCCCCCCCCCCC(=O)OC[C@@H](O)COP(=O)([O-])OCC[N+](C)(C)C [LPC 18:0] | 133.4 | 160.5 | 64.4 | more than 90%
137 | 162.3 | 10.7 | 89.3 | CCCCCCCCC(=O)OC[C@H](COP(=O)([O-])OCC[N+](C)(C)C)OC(=O)CCCCCCCC [PC 9:0, 9:0] | – | – | – | –
– | – | – | – | CCCCCCCCCCCCCC(=O)OC[C@@H](O)COP(=O)([O-])OCC[N+](C)(C)C [LPC 14:0] | 153.6 | 171.3 | 97.5 | –
172.7 | 210.1 | 64.7 | – | CCCCCCCCCCCCCCC(=O)OC[C@H](COP(=O)([O-])OCC[N+](C)(C)C)OC(=O)CCCCCCCCCCCCCC [PC 15:0, 15:0] | – | – | – | –
– | – | – | – | CCCCCCCCC(=O)OC[C@@H](O)COP(=O)([O-])OCC[N+](C)(C)C [LPC 9:0] | 134.9 | 179.6 | 94.5 | –

SMILES | residual activity 1A7 ([1]; 50 μM PC components) [%] | residual activity 1A1 ([2]; 50 μM PC components) [%] | residual activity 1A9 ([3]; 50 μM PC components) [%] | inhibition percentage of UGT1A9 activity ([3]; 50 μM) [%] | residual activity 1A7 ([1]; 50 μM LPC components) [%] | residual activity 1A1 ([2]; 50 μM LPC components) [%] | residual activity 1A9 ([3]; 50 μM LPC components) [%] | inhibition of activity of UGT isoforms [4]
CC/C=C\C/C=C\C/C=C\C/C=C\C/C=C\C/C=C\CCC(=O)O[C@H](COC(=O)CCCCCCCCCCCCCCCCC)COP(=O)([O-])OCC[N+](C)(C)C [PC 18:0, 22:6, 1-stearoyl-2-docosahexaenoyl-sn-glycero-3-phosphocholine] | 167.9 | 186.6 | 94.4 | – | – | – | – | –
CCCCCCCCCC(=O)OC[C@H](COP(=O)([O-])OCC[N+](C)(C)C)OC(=O)CCCCCCCCC [PC 10:0, 10:0] | 163.2 | 197.9 | 158 | – | – | – | – | –
CCCCCCC(=O)OC[C@H](COP(=O)([O-])OCC[N+](C)(C)C)OC(=O)CCCCCC [PC 7:0, 7:0] | 150.2 | 176.8 | 137.7 | – | – | – | – | –
CCCCCCCC(=O)OC[C@H](COP(=O)([O-])OCC[N+](C)(C)C)OC(=O)CCCCCCC [PC 8:0, 8:0] | 114.8 | 155.6 | 180.5 | – | – | – | – | –
CCCCCC(=O)OC[C@H](COP(=O)([O-])OCC[N+](C)(C)C)OC(=O)CCCCC [PC 6:0, 6:0] | 166.0 | 187.8 | 96.1 | – | – | – | – | –
